Laboratory results published in article PMC7534336, “New classes of potent heparanase inhibitors from ligand-based virtual screening” (Journal of Enzyme Inhibition and Medicinal Chemistry, 2020).
“And” between values parts separate entries of the source, which are not always exact repeats. Identical values can stand only once. Like-named read-outs stand apart in the source and are kept apart here. Values belong to the compound of their own block, whether it stands above or below them.

Assays:
[1] = system: HT1080 (fibrosarcoma) cells; assay: proliferation assay (sulforhodamine B), HT1080; assay type: cell-based, human; details: HT1080, 72 h, range 10–0.2 µM, SRB, read-out: IC50, inhibition of cell proliferation
Method: (§1) HT1080 (fibrosarcoma), U87MG (glioblastoma), and U2OS (osteosarcoma) human cell lines were purchased from the American Type Culture Collection (ATCC; Manassas, VA) and maintained according to the manufacturer’s recommendations. Briefly, HT1080 and U87MG were grown in modified Eagle medium (Thermo Fisher Scientific), while U2OS cells were grown in McCoy’s 5a medium (Thermo Fisher Scientific), all supplemented with 10% FCS (Thermo Fisher Scientific), 100 U/mL penicillin, and 100 μg/mL streptomycin (Thermo Fisher Scientific) and 2 mM L-glutamine (Thermo Fisher Scientific). Cell lines were maintained at 37 °C with a humidified 5% CO2 atmosphere.
(§2) HT1080, U87MG, and U2OS exponentially growing cells were seeded into 96-well plates and then, 24 h later, treated for 72 h with several dilutions of test compounds in the range 10 − 0.2 μM. Inhibition of cell proliferation was measured by means of a classical sulforhodamine B (SRB) assay[40] performed in triplicate.

[2] = system: U87MG (glioblastoma) cells; assay: proliferation assay (sulforhodamine B), U87MG; assay type: cell-based, human; details: 72 h, range 10–0.2 µM, SRB, read-out: IC50, inhibition of cell proliferation
Method: as §1, §2

[3] = system: U2OS (osteosarcoma) cells; assay: proliferation assay (sulforhodamine B), U2OS; assay type: cell-based, human; details: 72 h, range 10–0.2 µM, SRB, read-out: IC50, inhibition of cell proliferation
Method: as §1, §2

HT1080 cells = assay: Matrigel cell invasion assay, HT1080; assay type: cell-based, human; details: 24 h of treatment; for inhibition at 10 µM: concentration tested 10 µM
Method: (§3) Cells were pre-treated with the indicated drug concentrations in complete medium for 24 h. Then, cells were harvested, resuspended in serum-free medium, and transferred (2.5 × 10^4 cells per filter) to the upper chamber of 24-well Transwell plates (Costar, Corning Inc., Corning, NY) previously coated with Growth Factor Reduced Matrigel (BD Biosciences, San Jose, CA). The same drug concentration used for cell pre-treatment was added to both the upper and lower chambers. After 24 h of incubation, cells that invaded the Matrigel were stained with SRB and then counted through a microscope at 40× −100× magnification depending on cell density. Data were expressed as the % inhibition of cell invasion, with respect to cell invasion in the absence of drugs.

U87MG cells = assay: Matrigel cell invasion assay, U87MG; assay type: cell-based, human; details: 24 h of treatment; for inhibition at 10 µM: concentration tested 10 µM
Method: as §3

U2OS cells = assay: Matrigel cell invasion assay, U2OS; assay type: cell-based, human; details: 24 h of treatment; for inhibition at 10 µM: concentration tested 10 µM
Method: as §3

[4] = system: FGF-1, FGF-2, VEGF, MMP-9 and heparanase mRNA in HT1080 cells; assay: real-time qPCR of angiogenesis-related genes and heparanase in HT1080 cells; assay type: cell-based, human; details: 1 µM, 24 h, q-PCR
Method: Total RNA was extracted from HT1080 cells, upon 24 h of treatment with test compounds (1 µM) and then retrotranscribed using the iScript Advanced cDNA Synthesis Kit for RT-qPCR (Bio-Rad Laboratories Inc., Hercules, CA) according to the manufacturer’s instructions. Real time quantitative PCR analysis was performed using SsoAdvanced Universal SYBR Green Supermix (Bio- Rad Laboratories Inc., Hercules, CA) and the following PrimePCR SYBR Green Assays: qHsaCID0015228 (heparanase), qHsaCED0002206 (FGF-1), qHsaCID0015510 (FGF-2), qHsaCID0011597 (MMP-9), and qHsaCED0043454 (VEGF-A) (Bio-Rad Laboratories Inc., Hercules, CA). The 7900HT Sequence Detection System instrument and software (Applied Biosystems) were used to quantify the relative expression of the target genes. Tests were performed in triplicate.

human GS3 heparanase = human GS3 heparanase (Homo sapiens, UniProt Q9Y251); assay: fondaparinux assay of heparanase enzymatic activity (WST-1 colorimetric); assay type: biochemical; details: fondaparinux assay on human GS3 heparanase; mean of triplicates; read-out: IC50 (µM) ± SD, heparanase inhibitory activity
From the text: To determine the activity of the heparanase inhibitors, a homogeneous assay based on the cleavage of the synthetic heparin oligosaccharide fondaparinux (Arixtra; Aspen) was used. The assay measures colorimetrically the appearance of the disaccharide product of heparanase-catalysed fondaparinux cleavage using the tetrazolium salt WST-1. The assay was essentially performed as described[39] with minor modifications. Briefly, Nunc 96-well (Thermo Fisher Scientific) plates were pre-treated with a solution of 4% BSA (bovine serum albumin, Sigma-Aldrich) in phosphate-buffered saline containing 0.05% Tween 20 (PBST), for 2 h at 37 °C, and then washed three times with PBST. […] The IC50 value for each compound was calculated by GraphPad software. Finally, the measurements were corrected by subtracting both the reagent background and the inner absorbance value of test compound.
Supporting Table S1 reports the structures of the fifty-five compounds purchased and tested, with information, for each compound, on the database from which it was retrieved, the reference inhibitor used to retrieve it and the similarity value with the reference inhibitor.

heparanase = details: literature value of reference inhibitor 6; read-out: reported IC50; cited from earlier work

Sequence of human GS3 heparanase (Q9Y251 other isoform, or with tags, fused parts or gaps): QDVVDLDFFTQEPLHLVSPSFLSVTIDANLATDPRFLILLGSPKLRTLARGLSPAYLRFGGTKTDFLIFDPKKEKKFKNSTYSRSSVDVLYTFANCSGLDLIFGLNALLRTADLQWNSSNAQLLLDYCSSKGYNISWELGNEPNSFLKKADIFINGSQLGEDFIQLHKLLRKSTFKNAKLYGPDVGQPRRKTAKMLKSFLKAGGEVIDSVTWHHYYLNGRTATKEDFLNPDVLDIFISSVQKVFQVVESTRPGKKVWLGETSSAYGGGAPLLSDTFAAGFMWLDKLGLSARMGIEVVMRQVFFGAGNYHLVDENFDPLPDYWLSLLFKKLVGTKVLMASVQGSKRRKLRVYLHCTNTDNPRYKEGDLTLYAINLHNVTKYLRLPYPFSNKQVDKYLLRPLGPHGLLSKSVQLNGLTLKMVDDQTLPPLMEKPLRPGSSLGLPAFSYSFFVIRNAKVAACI

Compound: COc1ccc(C(=O)Nc2ccc(CNc3ccc(-c4nc5ccccc5[nH]4)cc3)cc2)cc1Br [Compound 7, reference compound]
- inhibition at 1 µM (HT1080 cells; Homo sapiens, HT-1080, concentration tested 1.0 µM): 88 ± 2%
- inhibition at 1 µM (U87MG cells; Homo sapiens, U-87 MG, concentration tested 1.0 µM): 78 ± 3%
- inhibition at 1 µM (U2OS cells; Homo sapiens, U2OS, concentration tested 1.0 µM): 82 ± 2%

Compound: Cc1ccc(C(=O)Nc2ccc(S(=O)(=O)O)c3cc(S(=O)(=O)O)cc(S(=O)(=O)O)c23)cc1NC(=O)c1cccc(NC(=O)Nc2cccc(C(=O)Nc3cc(C(=O)Nc4ccc(S(=O)(=O)O)c5cc(S(=O)(=O)O)cc(S(=O)(=O)O)c45)ccc3C)c2)c1 [suramin, reference compound]
- IC50 ([1]; Homo sapiens, HT-1080): > 10 µM
- IC50 ([2]; Homo sapiens, U-87 MG): > 10 µM
- IC50 ([3]; Homo sapiens): > 10 µM
- inhibition at 10 µM (HT1080 cells; Homo sapiens, HT-1080): 22 ± 5%
- inhibition at 10 µM (U87MG cells; Homo sapiens, U-87 MG): < 0%
- inhibition at 10 µM (U2OS cells; Homo sapiens, U2OS): < 0%

Compound: O=C(O)Cc1ccc2oc(-c3ccc(NC(=O)Nc4ccc(-c5nc6cc(CC(=O)O)ccc6o5)cc4F)c(F)c3)nc2c1 [Compound 6]
- IC50 (heparanase): 0.18 µM

The next lines start with results.

- IC50 [1]: > 10 µM
- IC50 [2]: > 10 µM
- IC50 [3]: > 10 µM
Compound: O=C(O)c1ccc2c(c1)C(=O)N(c1ccc(NC(=O)c3cccc(C(=O)Nc4ccc(N5C(=O)c6ccc(C(=O)O)cc6C5=O)cc4Cl)c3)c(Cl)c1)C2=O [Compound 63]
- Invasion assay inhibition (%) HT1080 (HT1080 cells; concentration tested 2.5 µM): 39 ± 6%
- Invasion assay inhibition (%) U87MG (U87MG cells; concentration tested 2.5 µM): 45 ± 4%
- Invasion assay inhibition (%) U2OS (U2OS cells; concentration tested 2.5 µM): 75 ± 3%
- effect on transcription of heparanase [4]: not or very weakly affected
- effect on transcription of proangiogenic genes (FGF-1, FGF-2, VEGF, MMP-9) [4]: significant inhibitory effect

- IC50 (human GS3 heparanase): < 0.5 µM and 0.38 µM
- IC50 ([1]; Homo sapiens, HT-1080): > 10 µM
- IC50 ([2]; Homo sapiens, U-87 MG): > 10 µM
- IC50 ([3]; Homo sapiens): > 10 µM
Compound: O=C(Nc1cccc(-c2nc3ccccc3[nH]2)c1)c1ccc(Oc2ccc(C(=O)Nc3cccc(-c4nc5ccccc5[nH]4)c3)cc2)cc1 [Compound 29]
- inhibition at 2.5 µM (HT1080 cells; Homo sapiens, HT-1080, concentration tested 2.5 µM): 29 ± 4%
- inhibition at 2.5 µM (U87MG cells; Homo sapiens, U-87 MG, concentration tested 2.5 µM): 15 ± 3%
- inhibition at 2.5 µM (U2OS cells; Homo sapiens, U2OS, concentration tested 2.5 µM): 18 ± 3%

- IC50 (human GS3 heparanase): < 0.5 µM and 0.37 µM
- IC50 ([1]; Homo sapiens, HT-1080): > 10 µM
- IC50 ([2]; Homo sapiens, U-87 MG): > 10 µM
- IC50 ([3]; Homo sapiens): > 10 µM
Compound: COc1cc(/N=N/c2cc(S(=O)(=O)O)cc3cc(S(=O)(=O)O)cc(O)c23)c(C)cc1NC(=O)Nc1cc(C)c(/N=N/c2cc(S(=O)(=O)O)cc3cc(S(=O)(=O)O)cc(O)c23)cc1OC [Compound 16]
- inhibition at 10 µM (HT1080 cells; Homo sapiens, HT-1080): 93 ± 1%
- inhibition at 10 µM (U87MG cells; Homo sapiens, U-87 MG): 10 ± 4%
- inhibition at 10 µM (U2OS cells; Homo sapiens, U2OS): < 0%

- IC50 [1]: > 10 µM
- IC50 [2]: > 10 µM
- IC50 [3]: > 10 µM
Compound: O=C(Nc1ccc(-c2nc3ccccc3[nH]2)cc1)c1ccc(C(=O)Nc2ccc(-c3nc4ccccc4[nH]3)cc2)cc1 [Compound 61]
- Invasion assay inhibition (%) HT1080 (HT1080 cells; concentration tested 2.5 µM): 41 ± 3%
- Invasion assay inhibition (%) U87MG (U87MG cells; concentration tested 2.5 µM): 43 ± 5%
- Invasion assay inhibition (%) U2OS (U2OS cells; concentration tested 2.5 µM): 80 ± 2%
- effect on transcription of heparanase [4]: not or very weakly affected
- effect on transcription of proangiogenic genes (FGF-1, FGF-2, VEGF, MMP-9) [4]: significant inhibitory effect
